# Molecular target: T1, human bradykinin 1 receptor (B1R) (Homo sapiens, UniProt P46663)
# T1 construct: expressed in transfected cells; host or cells: CHO K1 cells
# T1 sequence (P46663 1-353): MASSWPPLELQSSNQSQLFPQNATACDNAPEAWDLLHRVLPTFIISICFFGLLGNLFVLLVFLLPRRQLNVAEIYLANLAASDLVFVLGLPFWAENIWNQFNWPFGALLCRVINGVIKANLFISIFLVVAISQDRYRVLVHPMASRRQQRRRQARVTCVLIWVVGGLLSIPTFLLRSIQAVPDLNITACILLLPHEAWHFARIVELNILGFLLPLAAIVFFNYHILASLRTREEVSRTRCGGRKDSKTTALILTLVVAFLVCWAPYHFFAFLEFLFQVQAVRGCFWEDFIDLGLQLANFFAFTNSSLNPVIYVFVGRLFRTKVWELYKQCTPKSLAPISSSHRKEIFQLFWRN
# Test: Functional investigation on the human bradykinin 1 receptor (B1R), Ca2+ FLIPR assay in CHO K1 hB1R cells
# Type: cell-based
# Settings: CHO-K1, B1R antagonism human; test substance 10 μM; Ca2+ FLIPR, CHO K1 hB1R cells; read-out: B1R Ant. h [10 μM] % Inhibition
# Outline: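 Peak Ca2+-dependent fluorescence in B1R-transfected CHO K1 cells measures antagonism of an EC80 agonist challenge given 10-20 min after compound. Agonist is Lys-Des-Arg9-bradykinin for human, Des-Arg9-bradykinin for rat receptor.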
row,Compound,inhibition at 10 µM [%]
1,"COc1cc(C)c(S(=O)(=O)N2CCC(OCC(=O)NC3CCC(C(c4cccs4)N(C)C)CC3)CC2)c(C)c1C (stereo not drawn) [Example 1, N-(4-((dimethylamino)(thiophen-2-yl)methyl)cyclohexyl)-2-(1-(4-methoxy-2,3,6-trimethylphenylsulfonyl)piperidin-4-yloxy)acetamide]",46
2,"Cc1ccc(S(=O)(=O)N(C)CCOCC(=O)NCC2CCC(C(c3cccs3)N(C)C)CC2)cc1 (stereo not drawn) [Example 4, N-((4-((dimethylamino)(thiophen-2-yl)methyl)cyclohexyl)methyl)-2-(2-(N,4-dimethylphenylsulfonamido)ethoxy)acetamide]",2
3,"COc1cc(C)c(S(=O)(=O)N2CCC(CCOCC(=O)NC3CCC(C(c4cccs4)N(C)C)CC3)CC2)c(C)c1C (stereo not drawn) [Example 5, N-(4-((dimethylamino)(thiophen-2-yl)methyl)cyclohexyl)-2-(2-(1-(4-methoxy-2,3,6-trimethylphenylsulfonyl)piperidin-4-yl)ethoxy)acetamide]",24
4,"CN(C)C(c1ccccc1)C1CCC(NC(=O)COCCN(C)S(=O)(=O)c2c(Cl)cc(Cl)cc2Cl)CC1 (stereo not drawn) [Example 34, N-(4-((dimethylamino)(phenyl)methyl)cyclohexyl)-2-(2-(2,4,6-trichloro-N-methylphenylsulfonamido)ethoxy)acetamide]",102
5,"COc1cc(C)c(S(=O)(=O)N(C)CCOCC(=O)NCC2CCC(C(c3cccs3)N(C)C)CC2)c(C)c1C (stereo not drawn) [Example 35, N-((4-((dimethylamino)(thiophen-2-yl)methyl)cyclohexyl)methyl)-2-(2-(4-methoxy-N,2,3,6-tetramethylphenylsulfonamido)ethoxy)acetamide]",50
6,"CN(C)C(c1cccs1)C1CCC(CNC(=O)COC2CCN(S(=O)(=O)c3ccccc3)C2)CC1 (stereo not drawn) [Example 36, N-((4-((dimethylamino)(thiophen-2-yl)methyl)cyclohexyl)methyl)-2-(1-(phenylsulfonyl)pyrrolidin-3-yloxy)acetamide]",-11
7,"CN(C)C(c1cccs1)C1CCC(CCNC(=O)COCCN(C)S(=O)(=O)c2ccc(Cl)cc2)CC1 (stereo not drawn) [Example 37, 2-(2-(4-chloro-N-methylphenylsulfonamido)ethoxy)-N-(2-(4-((dimethylamino)(thiophen-2-yl)methyl)cyclohexyl)ethyl)acetamide]",40
8,"COc1ccc(S(=O)(=O)N2Cc3ccccc3CC2COCC(=O)NC2CCC(C(c3ccccc3)N(C)C)CC2)cc1 (stereo not drawn) [Example 38, N-(4-((dimethylamino)(phenyl)methyl)cyclohexyl)-2-((2-(4-methoxyphenylsulfonyl)-1,2,3,4-tetrahydroisoquinolin-3-yl)methoxy)acetamide]",45
9,"CN(C)C(c1ccccc1)C1CCC(NC(=O)COC2CCCCC2N(C)S(=O)(=O)c2ccc(Cl)c(Cl)c2)CC1 (stereo not drawn) [Example 39, 2-(2-(3,4-dichloro-N-methylphenylsulfonamido)cyclohexyloxy)-N-(4-((dimethylamino)(phenyl)methyl)cyclohexyl)acetamide]",89
10,"CN(C)C(c1cccc(F)c1)C1CCC(CCNC(=O)COCCN(C)S(=O)(=O)c2c(Cl)cccc2Cl)CC1 (stereo not drawn) [Example 41, 2-(2-(2,6-dichloro-N-methylphenylsulfonamido)ethoxy)-N-(2-(4-((dimethylamino)(3-fluorophenyl)methyl)cyclohexyl)ethyl)acetamide]",91
11,"COc1cc(C)c(S(=O)(=O)N2CCC(OCC(=O)NC3CCC(C(c4cccs4)N(C)C)CC3)C2)c(C)c1C (stereo not drawn) [Example 43, N-(4-((dimethylamino)(thiophen-2-yl)methyl)cyclohexyl)-2-(1-(4-methoxy-2,3,6-trimethylphenylsulfonyl)pyrrolidin-3-yloxy)acetamide]",37
12,"COc1cc(C)c(S(=O)(=O)N2CCC(OCC(=O)NCC3CCC(C(c4ccccc4)N(C)C)CC3)C2)c(C)c1C (stereo not drawn) [Example 44, N-((4-((dimethylamino)(phenyl)methyl)cyclohexyl)methyl)-2-(1-(4-methoxy-2,3,6-trimethylphenylsulfonyl)pyrrolidin-3-yloxy)acetamide]",46
13,"COc1ccc(S(=O)(=O)N2CCCCC2COCC(=O)NCC2CCC(C(c3cccs3)N(C)C)CC2)cc1 (stereo not drawn) [Example 45, N-((4-((dimethylamino)(thiophen-2-yl)methyl)cyclohexyl)methyl)-2-((1-(4-methoxyphenylsulfonyl)piperidin-2-yl)methoxy)acetamide]",70
14,"COc1ccc(S(=O)(=O)N2CCCCC2CCOCC(=O)NCCC2CCC(C(c3cccs3)N(C)C)CC2)cc1 (stereo not drawn) [Example 46, N-(2-(4-((dimethylamino)(thiophen-2-yl)methyl)cyclohexyl)ethyl)-2-(2-(1-(4-methoxyphenylsulfonyl)piperidin-2-yl)ethoxy)acetamide]",86
15,"COc1ccc(S(=O)(=O)N2Cc3ccccc3CC2COCC(=O)NC2CCC(C(c3cccs3)N(C)C)CC2)cc1 (stereo not drawn) [Example 47, N-(4-((dimethylamino)(thiophen-2-yl)methyl)cyclohexyl)-2-((2-(4-methoxyphenylsulfonyl)-1,2,3,4-tetrahydroisoquinolin-3-yl)methoxy)acetamide]",24
16,"COc1ccc(S(=O)(=O)N2Cc3ccccc3CC2COCC(=O)NCCC2CCC(C(c3cccs3)N(C)C)CC2)cc1 (stereo not drawn) [Example 48, N-(2-(4-((dimethylamino)(thiophen-2-yl)methyl)cyclohexyl)ethyl)-2-((2-(4-methoxyphenylsulfonyl)-1,2,3,4-tetrahydroisoquinolin-3-yl)methoxy)acetamide]",33
17,"COc1ccc(S(=O)(=O)N2CCCCC2COCC(=O)NCC2CCC(C(c3cccs3)N(C)C)CC2)c(OC)c1 (stereo not drawn) [Example 49, 2-((1-(2,4-dimethoxyphenylsulfonyl)piperidin-2-yl)methoxy)-N-((4-((dimethylamino)(thiophen-2-yl)methyl)cyclohexyl)methyl)acetamide]",2
18,"COc1cc(C)c(S(=O)(=O)N(C)CCOCC(=O)NCCC2CCC(C(c3cccs3)N(C)C)CC2)c(C)c1C (stereo not drawn) [Example 52, N-(2-(4-((dimethylamino)(thiophen-2-yl)methyl)cyclohexyl)ethyl)-2-(2-(4-methoxy-N,2,3,6-tetramethylphenylsulfonamido)ethoxy)acetamide]",103
19,"CN(C)C(c1ccccc1)C1CCC(CNC(=O)COCCN(C)S(=O)(=O)c2ccc(OC(F)(F)F)cc2)CC1 (stereo not drawn) [Example 53, N-((4-((dimethylamino)(phenyl)methyl)cyclohexyl)methyl)-2-(2-(N-methyl-4-(trifluoromethoxy)phenylsulfonamido)ethoxy)acetamide]",19
20,"CN(C)C(c1cccs1)C1CCC(CNC(=O)COC2CCN(S(=O)(=O)c3ccc(Cl)cc3)C2)CC1 (stereo not drawn) [Example 54, 2-(1-(4-chlorophenylsulfonyl)pyrrolidin-3-yloxy)-N-((4-((dimethylamino)(thiophen-2-yl)methyl)cyclohexyl)methyl)acetamide]",10
21,"CN(C)C(c1cccs1)C1CCC(CNC(=O)COCCN(C)S(=O)(=O)c2ccc(Cl)cc2)CC1 (stereo not drawn) [Example 55, 2-(2-(4-chloro-N-methylphenylsulfonamido)ethoxy)-N-((4-((dimethylamino)(thiophen-2-yl)methyl)cyclohexyl)methyl)acetamide]",11
22,"Cc1cc(C)c(S(=O)(=O)N(C)CCOCC(=O)NCC2CCC(C(c3cccs3)N(C)C)CC2)c(C)c1 (stereo not drawn) [Example 57, N-((4-((dimethylamino)(thiophen-2-yl)methyl)cyclohexyl)methyl)-2-(2-(N,2,4,6-tetramethylphenylsulfonamido)ethoxy)acetamide]",82
23,"COc1cc(C)c(S(=O)(=O)N2CCC(OCC(=O)NCC3CCC(C(c4cccs4)N(C)C)CC3)C2)c(C)c1C (stereo not drawn) [Example 58, N-((4-((dimethylamino)(thiophen-2-yl)methyl)cyclohexyl)methyl)-2-(1-(4-methoxy-2,3,6-trimethylphenylsulfonyl)pyrrolidin-3-yloxy)acetamide]",52
24,"CCN(CCOCC(=O)NC1CCC(C(c2cccs2)N(C)C)CC1)S(=O)(=O)c1c(C)cc(OC)c(C)c1C (stereo not drawn) [Example 59, N-(4-((dimethylamino)(thiophen-2-yl)methyl)cyclohexyl)-2-(2-(N-ethyl-4-methoxy-2,3,6-trimethylphenylsulfonamido)ethoxy)acetamide]",56
25,"COc1cc(C)c(S(=O)(=O)N2CCCC(OCC(=O)NCC3CCC(C(c4cccs4)N(C)C)CC3)C2)c(C)c1C (stereo not drawn) [Example 60, N-((4-((dimethylamino)(thiophen-2-yl)methyl)cyclohexyl)methyl)-2-(1-(4-methoxy-2,3,6-trimethylphenylsulfonyl)piperidin-3-yloxy)acetamide]",28

# Same assay, conditions: CHO-K1, read-out: B1R Ant. h [10 μM] % Inhibition
row,Compound,inhibition at 10 µM [%]
1,"CN(C)C(c1cccs1)C1CCC(NC(=O)COC2CCCN(S(=O)(=O)c3ccccc3)C2)CC1 (stereo not drawn) [Example 42, N-(4-((dimethylamino)(thiophen-2-yl)methyl)cyclohexyl)-2-(1-(phenylsulfonyl)piperidin-3-yloxy)acetamide]",-14
2,"CN(C)C(c1cccs1)C1CCC(CNC(=O)COCCN(C)S(=O)(=O)c2ccc(F)cc2)CC1 (stereo not drawn) [Example 56, N-((4-((dimethylamino)(thiophen-2-yl)methyl)cyclohexyl)methyl)-2-(2-(4-fluoro-N-methylphenylsulfonamido)ethoxy)acetamide]",22
